From publication PMC7684313, “In vitro and in vivo pharmacological activity of minor cannabinoids isolated from Cannabis sativa” (Scientific Reports, 2020)
Where “and” joins values, the source holds several entries; their conditions need not be identical. Identical values can stand only once. Entries after “also recorded” stand apart in the source; their conditions may differ. Like-named read-outs stand apart in the source and are kept apart here. Marks after values point to notes of the source that are not given here.

Legend:
[1] = system: C57BL/6 mice; assay: Nociception in the tail flick assay (tetrad); type: in vivo; conditions: 3 mg/kg i.p.; 15 min post-injection
Method: (§1) Asterisk colour matches the treatment group assessed.
(§2) Concentration–response curves (CRC) were fit using non-linear regression with variable slope (4 parameters) and used to calculate EC50, Emin, and Emax (GraphPad, Prism, v. 8.0). […] In vivo data are presented as % MPE for catalepsy (MPE = 60 s) and anti-nociception (MPE = 20 s), °C for body temperature, and distance travelled (m) and % time in the centre quadrant in 5 min for OFT. Post-hoc analyses were performed using Tukey’s (one-way ANOVA) test. Homogeneity of variance was confirmed using Bartlett’s test. All data were evaluated for possible outliers using Grubb’s test in GraphPad.

[2] = molecular target: T1, hCB2R (Homo sapiens, UniProt P34972); assay: [^3H]CP55,940 displacement from hCB2R CHO cell membranes
T1 sequence (P34972 whole entry): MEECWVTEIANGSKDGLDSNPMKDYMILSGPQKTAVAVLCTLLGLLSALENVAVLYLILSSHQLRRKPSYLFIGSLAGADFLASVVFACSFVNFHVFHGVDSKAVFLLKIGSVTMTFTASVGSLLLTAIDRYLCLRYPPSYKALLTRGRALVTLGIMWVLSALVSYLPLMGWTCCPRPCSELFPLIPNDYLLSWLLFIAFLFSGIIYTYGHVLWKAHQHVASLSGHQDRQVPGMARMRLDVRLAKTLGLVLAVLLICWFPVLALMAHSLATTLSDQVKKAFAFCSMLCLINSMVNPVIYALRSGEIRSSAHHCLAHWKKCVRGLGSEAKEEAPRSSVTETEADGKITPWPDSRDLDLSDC

[3] = molecular target: T1, hCB2R; assay: hCB2R-dependent recruitment of βarrestin2 (PathHunter CHO cells); type: cell-based; parameters: expressed in transfected cells; membranes; conditions: CHO
[4] = molecular target: T1, hCB2R; assay: biochemical
[5] = molecular target: T2, hCB1R (Homo sapiens, UniProt P21554); assay: cell-based; conditions: CHO; read-out: hCB1R Emax, recruitment of βarrestin2
T2 construct: expressed in transfected cells; membranes
T2 sequence (P21554 whole entry): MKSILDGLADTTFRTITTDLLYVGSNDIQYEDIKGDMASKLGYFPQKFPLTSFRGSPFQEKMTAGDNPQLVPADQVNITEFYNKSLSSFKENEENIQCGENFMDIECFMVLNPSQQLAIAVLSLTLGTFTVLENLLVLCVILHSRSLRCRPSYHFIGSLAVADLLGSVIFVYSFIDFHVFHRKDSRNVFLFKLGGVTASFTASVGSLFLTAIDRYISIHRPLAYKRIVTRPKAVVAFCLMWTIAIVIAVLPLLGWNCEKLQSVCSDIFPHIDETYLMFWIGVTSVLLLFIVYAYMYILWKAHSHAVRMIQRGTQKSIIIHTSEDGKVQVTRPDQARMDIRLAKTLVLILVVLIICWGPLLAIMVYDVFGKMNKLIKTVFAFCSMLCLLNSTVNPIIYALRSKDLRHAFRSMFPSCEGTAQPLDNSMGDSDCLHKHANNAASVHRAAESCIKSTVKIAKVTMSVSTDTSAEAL

[6] = molecular target: T1, hCB2R; assay: Ligand bias between cAMP inhibition and βarrestin2 recruitment at hCB2R (operational model); type: cell-based; parameters: expressed in transfected cells; membranes; conditions: ∆∆LogR > 0 bias for inhibition of cAMP, < 0 bias for βarrestin2; CP55,940 reference agonist
Method: (§3) Figure 8 Analysis of ligand bias for phytocannabinoids at hCB1R (a) and hCB2R (b).
as §2

[7] = molecular target: T1, hCB2R; assay: hCB2R-dependent inhibition of FSK-stimulated cAMP accumulation (HitHunter CHO cells); type: cell-based; parameters: expressed in transfected cells; membranes
[8] = molecular target: T2, hCB1R; assay: Ligand bias between cAMP inhibition and βarrestin2 recruitment at hCB1R (operational model); type: cell-based; conditions: ∆∆LogR > 0 bias for inhibition of cAMP, < 0 bias for βarrestin2; CP55,940 reference agonist
Method: as §3, §2

[9] = system: C57BL/6 mice; assay: Time in the centre quadrant of the OFT (anxiety-like behaviour); type: in vivo; conditions: 10 mg/kg i.p.; 1 h post-injection
Method: as §1, §2

[10] = molecular target: T2, hCB1R; assay: biochemical; type: binding
[11] = molecular target: CB1R; conditions: read-out: affinity for CB1R (previous reports); cited from earlier work
[12] = molecular target: CB2R; conditions: read-out: affinity for CB2R (previous reports); cited from earlier work
[13] = molecular target: T2, hCB1R; assay: cell-based; type: cell-based

CCCCCc1cc(O)c(C/C=C(\C)CCC=C(C)C)c(O)c1 [CBG, cannabigerol]
anti-nociceptive effect (tail flick latency), in words [1]: weak anti-nociceptive effect; also recorded: small but statistically significant anti-nociceptive effect | hCB2R Emin ([2]; bottom of the concentration–response curve of [^3H]CP55,940 displacement, %CP55,940 response, mean ± SEM): 32 ± 8.1% | extent of [^3H]CP55,940 displacement from hCB2R, in words ([2]; concentration range 0.1 nM–10 µM): displaced [^3H]CP55,940 from hCB2R to an extent that was not different from CP55,940 | Emax [3]: 22 ± 1.2% | Ki [4]: 500 nM and 490 nM | Emax [5]: 0.41 ± 0.45% | ligand bias at hCB2R (∆∆LogR), in words [6]: bias for inhibition of cAMP relative to βarrestin2 | agonist activity in hCB2R cAMP inhibition, in words ([7]; 0.1 nM–10 µM, relative to CP55,940): weak partial agonist | Emax ([7]; CHO): 39 ± 11% | EC50 ([7]; HitHunter CHO hCB2R cells, 90 min, 95% CI in brackets, read-out: hCB2R EC50, inhibition of FSK-stimulated cAMP accumulation): 130 nM | ligand bias at hCB1R (∆∆LogR), in words [8]: bias for the inhibition of cAMP relative to βarrestin2 | time in the central quadrant of the OFT (modelled anxiolytic effect), in words [9]: anxiolytic-like effect | Ki [10]: 1300 nM | extent of [^3H]CP55,940 displacement from hCB1R, in words [10]: weakly displaced [^3H]CP55,940 at concentrations ≥ 1 µM | hCB1R Emin [10]: 49 ± 7.2*^ % | Ki [11]: > 1000 nM | Ki [12]: > 1000 nM | agonist activity in hCB1R cAMP inhibition, in words [13]: weak partial agonist | Emax ([13]; CHO, read-out: hCB1R Emax, inhibition of FSK-stimulated cAMP accumulation): 68 ± 2.4% | EC50 ([13]; HitHunter CHO hCB1R cells, 90 min, 95% CI in brackets, read-out: hCB1R EC50, inhibition of FSK-stimulated cAMP accumulation): 120 nM
